This is an account of results in patent publication US11884661B2, “3-substituted propionic acids as αV integrin inhibitors” (BRISTOL-MYERS SQUIBB COMPANY, priority 2016, dated 2024).

This assay concerns the target T1, human αVβ6 (Homo sapiens, UniProt P06756+P18564).
T1 construct: purchased R & D systems 3817-AV
The assay can be described thus: human αVβ6 HTRF binding assay. The following applies: recombinant human αVβ6 integrin, FITC-conjugated fibronectin. As to the method:
All binding assays used the HTRF (homogeneous time resolved fluorescence) technology from Cisbio International, therefore all assays are described as HTRF binding assays. The assay results for the Examples are listed above together with the characterization data. The HTRF binding assays are established for the following integrins: human αVβ6, human αVβ1, human αVβ3, human αVβ5, and human αVβ8. All assays used the following assay buffer: 20 mM Tris, pH 7.4, 1 mM MgCl2, 1 mM MnCl2, 0.01% Tween 20, and 0.01% BSA. Alternatively, a SPA-based assay was used for evaluation of receptor binding.
The following describes the components and a representative procedure for the human αVβ6 HTRF binding assay: Recombinant human αVβ6 Integrin (R & D systems, 3817-AV) was biotinylated. Biotinylated human αVβ6 Integrin was added to assay vessel at a final concentration of 1.25 nM. FITC-conjugated fibronectin (Cytoskeleton, FNR02) was then added at the final concentration of 5 nM. The mixture was centrifuged at 600 rpm for three minutes using Thermo Fisher Heraeus Multifuge X3 centrifuge and then incubated at RT for an hour. Streptavidin Terbium (Cisbio international 610STLB) was then added at the final concentration of 0.625 nM. The resulting mixture was centrifuged at 600 rpm for three minutes using Thermo Fisher Heraeus Multifuge X3 centrifuge and then incubated at room temperature overnight in dark before reading HTRF signals.

Molecules are shown by their SMILES.

T1 sequence (P06756 31-992 limits assumed): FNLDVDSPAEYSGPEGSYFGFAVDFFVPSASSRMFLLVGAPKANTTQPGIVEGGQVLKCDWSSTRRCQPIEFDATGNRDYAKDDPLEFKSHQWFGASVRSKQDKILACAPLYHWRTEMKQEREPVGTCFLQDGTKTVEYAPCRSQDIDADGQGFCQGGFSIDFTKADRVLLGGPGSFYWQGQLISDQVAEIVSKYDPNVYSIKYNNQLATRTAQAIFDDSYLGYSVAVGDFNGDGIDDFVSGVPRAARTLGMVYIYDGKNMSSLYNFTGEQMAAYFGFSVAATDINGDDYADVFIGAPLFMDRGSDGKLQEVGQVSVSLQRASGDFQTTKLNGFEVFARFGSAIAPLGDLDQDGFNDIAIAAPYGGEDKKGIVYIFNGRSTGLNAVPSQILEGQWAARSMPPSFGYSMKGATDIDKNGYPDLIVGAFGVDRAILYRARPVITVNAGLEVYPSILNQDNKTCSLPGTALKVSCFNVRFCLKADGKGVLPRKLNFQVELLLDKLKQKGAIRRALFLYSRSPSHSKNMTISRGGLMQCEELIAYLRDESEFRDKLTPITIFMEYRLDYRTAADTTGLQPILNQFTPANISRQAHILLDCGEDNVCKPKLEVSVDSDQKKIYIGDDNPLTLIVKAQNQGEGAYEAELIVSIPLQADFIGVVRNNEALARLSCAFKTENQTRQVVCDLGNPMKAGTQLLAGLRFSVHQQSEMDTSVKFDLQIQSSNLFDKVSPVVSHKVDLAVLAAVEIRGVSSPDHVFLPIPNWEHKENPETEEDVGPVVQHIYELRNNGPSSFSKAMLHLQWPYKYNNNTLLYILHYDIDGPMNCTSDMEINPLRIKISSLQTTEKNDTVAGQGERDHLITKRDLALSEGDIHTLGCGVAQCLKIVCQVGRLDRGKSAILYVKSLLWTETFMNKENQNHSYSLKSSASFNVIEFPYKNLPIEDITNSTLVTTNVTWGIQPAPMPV
T1 sequence (P18564 22-707 limits assumed): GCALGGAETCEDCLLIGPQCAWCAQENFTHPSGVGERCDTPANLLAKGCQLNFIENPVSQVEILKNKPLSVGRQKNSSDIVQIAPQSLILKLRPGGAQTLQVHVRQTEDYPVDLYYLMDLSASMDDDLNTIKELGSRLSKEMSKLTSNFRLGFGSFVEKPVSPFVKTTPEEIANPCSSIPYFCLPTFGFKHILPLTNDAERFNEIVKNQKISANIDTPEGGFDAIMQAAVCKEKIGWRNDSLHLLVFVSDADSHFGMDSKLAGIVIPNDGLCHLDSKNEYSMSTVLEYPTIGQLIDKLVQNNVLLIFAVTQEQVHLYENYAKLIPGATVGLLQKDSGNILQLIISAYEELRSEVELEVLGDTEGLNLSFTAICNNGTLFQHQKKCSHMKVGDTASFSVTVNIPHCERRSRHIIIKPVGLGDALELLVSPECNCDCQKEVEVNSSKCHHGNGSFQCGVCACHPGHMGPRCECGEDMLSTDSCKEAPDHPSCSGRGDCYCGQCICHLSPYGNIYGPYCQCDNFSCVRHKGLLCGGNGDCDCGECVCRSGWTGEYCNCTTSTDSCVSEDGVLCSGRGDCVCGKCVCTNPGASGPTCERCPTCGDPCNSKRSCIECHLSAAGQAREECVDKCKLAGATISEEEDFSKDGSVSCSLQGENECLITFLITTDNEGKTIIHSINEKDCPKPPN

For the molecule `Cc1ncc(C(CC(=O)O)n2nccc2CCC[C@@H]2CCc3cccnc3N2)cn1` (mixture of isomers) [Example 91, 3-(2-methylpyrimidin-5-yl)-3-(5-(3-((R)-1,2,3,4-tetrahydro-1,8-naphthyridin-2-yl)propyl)-1H-pyrazol-1-yl)propanoic acid], the IC50 was 1.4 µM.

As for `COc1ncc(C(CC(=O)O)n2nccc2CCC[C@H]2CCc3cccnc3N2)cn1` (mixture of isomers) [Example 92, 3-(2-methoxypyrimidin-5-yl)-3-(5-(3-((S)-1,2,3,4-tetrahydro-1,8-naphthyridin-2-yl)propyl)-1H-pyrazol-1-yl)propanoic acid], the IC50 was determined as 6.7 µM.

Turning to `COc1ncc(C(CC(=O)O)n2nccc2CCC[C@@H]2CCc3cccnc3N2)cn1` (mixture of isomers) [Example 93, 3-(2-methoxypyrimidin-5-yl)-3-(5-(3-((R)-1,2,3,4-tetrahydro-1,8-naphthyridin-2-yl)propyl)-1H-pyrazol-1-yl)propanoic acid], the IC50 was 1.03 µM.

As for `O=C(NC(Cc1cnn(CCc2ccc3c(n2)NCCC3)c1)C(=O)O)OCc1ccccc1` (racemic) [Example 5, (±)-2-(((Benzyloxy)carbonyl)amino)-3-(1-(2-(5,6,7,8-tetrahydro-1,8-naphthyridin-2-yl)ethyl)-1H-pyrazol-4-yl)propanoic acid], the concentration for half-maximal inhibition (IC50) was found to be 5 µM.

Turning to `O=C(NC(Cc1cnn(CCCc2ccc3c(n2)NCCC3)c1)C(=O)O)OCc1ccccc1` (racemic) [Example 6, (±)-2-(((Benzyloxy)carbonyl)amino)-3-(1-(3-(5,6,7,8-tetrahydro-1,8-naphthyridin-2-yl)propyl)-1N-pyrazol-4-yl)propanoic acid], the concentration for half-maximal inhibition (IC50) is 0.08 µM.

Take `COc1ccc(C(CC(=O)O)c2cnn(CCCc3ccc4c(n3)NCCC4)c2)cn1` (racemic) [Example 7, (±)-3-(6-Methoxypyridin-3-yl)-3-(1-(3-(5,6,7,8-tetrahydro-1,8-naphthyridin-2-yl)propyl)-1H-pyrazol-4-yl)propanoic acid]: the 50% inhibitory concentration (IC50) came to 0.323 µM.

On to `COc1ccc(C(CC(=O)O)c2cc(CCCc3ccc4c(n3)NCCC4)c[nH]2)cc1F` (racemic) [Example 10, (±)-3-(3-Fluoro-4-methoxyphenyl)-3-(4-(3-(5,6,7,8-tetrahydro-1,8-naphthyridin-2-yl)propyl)-1H-pyrrol-2-yl)propanoic acid], for which the half-inhibitory concentration (IC50) came out at 0.136 µM.

With `COc1ccc(C(CC(=O)O)c2cnn(CCCCc3ccc4c(n3)NCCC4)c2)cn1` (racemic) [Example 11, (±)-3-(6-Methoxypyridin-3-yl)-3-(1-(4-(5,6,7,8-tetrahydro-1,8-naphthyridin-2-yl)butyl)-1H-pyrazol-4-yl)propanoic acid], the concentration for half-maximal inhibition (IC50) was found to be 0.1 µM.

With `Cc1ncc(C(CC(=O)O)n2ccc(CCCc3ccc4c(n3)NCCC4)n2)cn1` (racemic) [Example 22, (±)-3-(2-Methylpyrimidin-5-yl)-3-(3-(3-(5,6,7,8-tetrahydro-1,8-naphthyridin-2-yl)propyl)-1H-pyrazol-1-yl)propanoic acid], the IC50 amounted to 0.064 µM.

Consider `CCCCOC(=O)NC(Cc1cnn(CCc2ccc3c(n2)NCCC3)c1)C(=O)O` (racemic) [Example 23, (±)-2-((Butoxycarbonyl)amino)-3-(1-(2-(5,6,7,8-tetrahydro-1,8-naphthyridin-2-yl)ethyl)-1H-pyrazol-4-yl)propanoic acid], for which the concentration for half-maximal inhibition (IC50) was 1.02 µM.

For the molecule `COc1ccc(C(CC(=O)O)c2cnn(CCCc3ccc4c(n3)NCCC4)c2)cc1F` (racemic) [Example 24, (±)-3-(3-Fluoro-4-methoxyphenyl)-3-(1-(3-(5,6,7,8-tetrahydro-1,8-naphthyridin-2-yl)propyl)-1H-pyrazol-4-yl)propanoic acid], the 50% inhibitory concentration (IC50) is 0.117 µM.

Take `Cc1cc(C)c(S(=O)(=O)NC(Cc2cnn(CCCc3ccc4c(n3)NCCC4)c2)C(=O)O)c(C)c1` (racemic) [Example 25, (±)-3-(1-(3-(5,6,7,8-Tetrahydro-1,8-naphthyridin-2-yl)propyl)-1H-pyrazol-4-yl)-2-((2,4,6-trimethylphenyl)sulfonamido)propanoic acid]: the 50% inhibitory concentration (IC50) was determined as 0.395 µM.

Turning to `O=C(O)CC(c1cc(Cl)cc(Cl)c1)c1cnn(CCCc2ccc3c(n2)NCCC3)c1` (racemic) [Example 26, (±)-3-(3,5-Dichlorophenyl)-3-(1-(3-(5,6,7,8-tetrahydro-1,8-naphthyridin-2-yl)propyl)-1H-pyrazol-4-yl)propanoic acid], the concentration for half-maximal inhibition (IC50) turned out to be 0.027 µM.

Turning to `O=C(O)CC(c1cnc2ccccc2n1)n1ccc(CCCc2ccc3c(n2)NCCC3)n1` (racemic) [Example 28, (±)-3-(Quinoxalin-2-yl)-3-(3-(3-(5,6,7,8-tetrahydro-1,8-naphthyridin-2-yl)propyl)-1H-pyrazol-1-yl)propanoic acid], the IC50 was determined as 5.5 µM.

As for `O=C(O)CC(c1cnc2nccnc2c1)n1ccc(CCCc2ccc3c(n2)NCCC3)n1` (racemic) [Example 33, (±)-3-(Pyrido[2,3-b]pyrazin-7-yl)-3-(3-(3-(5,6,7,8-tetrahydro-1,8-naphthyridin-2-yl)propyl)-1H-pyrazol-1-yl)propanoic acid], the half-inhibitory concentration (IC50) amounted to 2.8 µM.

For `COc1ncc(C(CC(=O)O)n2ccc(CCCc3ccc4c(n3)NCCC4)n2)cn1` (racemic) [Example 34, (±)-3-(2-Methoxypyrimidin-5-yl)-3-(3-(3-(5,6,7,8-tetrahydro-1,8-naphthyridin-2-yl)propyl)-1H-pyrazol-1-yl)propanoic acid], the 50% inhibitory concentration (IC50) was found to be 0.01 µM.

For the molecule `O=C(O)CC(c1cnc2c(c1)OCCO2)n1ccc(CCCc2ccc3c(n2)NCCC3)n1` (racemic) [Example 35, (±)-3-(2,3-Dihydro-[1,4]dioxino[2,3-b]pyridin-7-yl)-3-(3-(3-(5,6,7,8-tetrahydro-1,8-naphthyridin-2-yl)propyl)-1H-pyrazol-1-yl)propanoic acid], the 50% inhibitory concentration (IC50) was 0.017 µM.

As for `COc1ccc(C(CC(=O)O)n2ccc(CCCc3ccc4c(n3)NCCC4)n2)cc1F` (racemic) [Example 49, (±)-3-(3-Fluoro-4-methoxyphenyl)-3-(3-(3-(5,6,7,8-tetrahydro-1,8-naphthyridin-2-yl)propyl)-1H-pyrazol-1-yl)propanoic acid], the IC50 was determined as 0.024 µM.

Consider `O=C(O)CC(c1cnc(N2CCC2)nc1)n1ccc(CCCc2ccc3c(n2)NCCC3)n1` (racemic) [Example 50, (±)-3-(2-(Azetidin-1-yl)pyrimidin-5-yl)-3-(3-(3-(5,6,7,8-tetrahydro-1,8-naphthyridin-2-yl)propyl)-1H-pyrazol-1-yl)propanoic acid], for which the IC50 was determined as 0.0064 µM.

Turning to `O=C(O)CC(c1cnc(N2CCC2)nc1)n1nccc1CCCc1ccc2c(n1)NCCC2` (racemic) [Example 53, (±)-3-(2-(Azetidin-1-yl)pyrimidin-5-yl)-3-(5-(3-(5,6,7,8-tetrahydro-1,8-naphthyridin-2-yl)propyl)-1H-pyrazol-1-yl)propanoic acid], the IC50 was determined as 0.14 µM.

On to `COc1ccc(C(CC(=O)O)n2ccc(CCCc3ccc4c(n3)NCCC4)n2)nn1` (racemic) [Example 57, (±)-3-(6-Methoxypyridazin-3-yl)-3-(3-(3-(5,6,7,8-tetrahydro-1,8-naphthyridin-2-yl)propyl)-1H-pyrazol-1-yl)propanoic acid], for which the IC50 was found to be 0.051 µM.

`COc1ccc(C(CC(=O)O)n2nccc2CCCc2ccc3c(n2)NCCC3)nn1` (racemic) [Example 58, (±)-3-(6-Methoxypyridazin-3-yl)-3-(5-(3-(5,6,7,8-tetrahydro-1,8-naphthyridin-2-yl)propyl)-1H-pyrazol-1-yl)propanoic acid]: the IC50 amounted to 2.1 µM.

Turning to `COc1cnc(C(CC(=O)O)n2ccc(CCCc3ccc4c(n3)NCCC4)n2)cn1` (racemic) [Example 59, (±)-3-(5-Methoxypyrazin-2-yl)-3-(3-(3-(5,6,7,8-tetrahydro-1,8-naphthyridin-2-yl)propyl)-1H-pyrazol-1-yl)propanoic acid], the IC50 was determined as 0.11 µM.

Turning to `COc1cnc(C(CC(=O)O)n2nccc2CCCc2ccc3c(n2)NCCC3)cn1` (racemic) [Example 60, (±)-3-(5-Methoxypyrazin-2-yl)-3-(5-(3-(5,6,7,8-tetrahydro-1,8-naphthyridin-2-yl)propyl)-1H-pyrazol-1-yl)propanoic acid], the IC50 came to 0.5 µM.

Regarding `COc1ccc(C(CC(=O)O)n2cc(CCCCc3ccc4c(n3)NCCC4)cn2)cn1` (racemic) [Example 61, (±)-3-(6-Methoxypyridin-3-yl)-3-(4-(4-(5,6,7,8-tetrahydro-1,8-naphthyridin-2-yl)butyl)-1H-pyrazol-1-yl)propanoic acid], the IC50 is 0.056 µM.

As for `COc1ccc(C(CC(=O)O)n2cc(CCCc3ccc4c(n3)NCCC4)cn2)cn1` (racemic) [Example 62, (±)-3-(6-Methoxypyridin-3-yl)-3-(4-(3-(5,6,7,8-tetrahydro-1,8-naphthyridin-2-yl)propyl)-1H-pyrazol-1-yl)propanoic acid], the half-maximal inhibitory concentration (IC50) was 0.17 µM.

Consider `O=C(O)CC(c1cncc(N2CCCC2)c1)n1ccc(CCCc2ccc3c(n2)NCCC3)n1` (racemic) [Example 66, (±)-3-[5-(pyrrolidin-1-yl)pyridin-3-yl]-3-{3-[3-(5,6,7,8-tetrahydro-1,8-naphthyridin-2-yl)propyl]-1H-pyrazol-1-yl}propanoic acid], for which the IC50 came out at 0.021 µM.

The term IC50 denotes the concentration that gives 50% inhibition.
